# Data: patent publication US6579882B2, “Cell adhesion-inhibiting antiinflammatory compounds” (Abbott Laboratories, priority 1998, dated 2003)
row,SMILES,melting point
1,"NCCNC(=O)c1cc2c(Oc3ccc(Cl)cc3)cncc2s1 [Example 154, N-(2-Aminoethyl)-4-(4-chlorophenoxy)thieno[2,3-c]pyridine-2-carboxamide]",111 to 114 °C
2,"CC(=NO)c1cc2c(Sc3ccc(C)cc3)cncc2s1 [Example 36, 1-[4-[(4-methylphenyl)thio]thieno[2,3-c]pyridin-2-yl]ethanone, oxime]",209 to 213 °C
3,"N#Cc1cc2c(Oc3ccc(Cl)cc3)cncc2s1 [Example 248, 4-(4-Chlorophenoxy)thieno[2,3-c]pyridine-2-carbonitrile]",140 to 142 °C
4,"Cc1ccc(Sc2cncc3sc(C=NO)cc23)cc1 [Example 30, 4-[(4-methylphenyl)thio]thieno[2,3-c]pyridine-2-carboxaldehyde, oxime]",209 to 210 °C
5,"NC(=O)c1cc2c(Oc3ccc(F)c(F)c3F)cncc2s1 [Example 182, 4-(2,3,4-Trifluorophenoxy)thieno[2,3-c]pyridine-2-carboxamide]",218 to 219 °C
6,"CC(=O)c1cc2c(Sc3ccc(C)cc3)cncc2s1 [Example 33, 1-[4-[(4-methylphenyl)thio]thieno[2,3-c]pyridin-2-yl]ethanone]",134 to 138 °C
7,"CCOC(=O)C1(CC)Cc2c(Sc3ccc(C)cc3)ncnc2S1 (stereo not shown) [Example 7, ethyl 6-ethyl-4-[(4-methylphenyl)thio]thieno[2,3-d]pyrimidine-6-carboxylate]",87.5 to 90 °C
8,"CON(C)C(=O)c1cc2c(Sc3ccc(C)cc3)cncc2s1 [Example 22, N-methoxy-N-methyl-4-[(4-methylphenyl)thio]thieno[2,3-c]pyridine-2-carboxamide]",103 to 107 °C
9,"CCc1cc2c(Sc3ccccn3)ncnc2s1 [Example 3, 6-ethyl-4-(2-pyridinylthio)thieno[2,3-d]pyrimidine]",76.5 to 79 °C
10,"Cc1ccc(Sc2cncc3sc(C=NOCC(N)=O)cc23)cc1 [Example 31, 2-[[[4-[(4-methylphenyl)thio]thieno[2,3-c]pyridine-2-ylmethylene]amino]oxy]acetamide]",152 to 156 °C
11,"Clc1ccc(Oc2cncc3sc(-c4cccs4)cc23)cc1 [Example 292, 4-(4-Chlorophenoxy)-2-(2-thienyl)thieno[2,3-c]pyridine]",101 to 103 °C
12,"Cc1ccc(Sc2cncc3sc(C=NOCC(=O)O)cc23)cc1 [Example 28, 2-[[[4-[(4-methylphenyl)thio]thieno[2,3-c]pyridin-2-ylmethylene]amino]oxy]acetic acid]",227 to 230 °C
13,"CCc1cc2c(Sc3ccc(C)cc3)ncnc2s1 [Example 2, 6-ethyl-4-[(4-methylphenyl)thio]thieno[2,3-d]pyrimidine]",56 to 58 °C
14,"CNC(=O)c1cc2c(Oc3ccc(F)c(F)c3F)cncc2s1 [Example 181, N-Methyl-4-(2,3,4-trifluorophenoxy)thieno[2,3-c]pyridine-2-carboxamide]",170 to 171 °C
15,"CNC(=O)c1cc2c(Oc3cccc(F)c3F)cncc2s1 [Example 179, 4-(2,3-Difluorophenoxy)-N-methylthieno[2,3-c]pyridine-2-carboxamide]",169 to 171 °C
16,"Cc1ccc(Sc2ccnc3sc(C(N)=O)cc23)cc1 [Example 132D, 4-[(4-methylphenyl)thio]thieno[2,3-b]pyridine-2-carboxamide]",280 to 282 °C
17,"CNC(=O)c1cc2c(Oc3ccc(COC4CCCCO4)cc3)cncc2s1 (stereo not shown) [Example 199, N-Methyl-4-{4-[(tetrahydro-2H-pyran-2-yloxy)methyl]phenoxy}thieno[2,3-c]pyridine-2-carboxamide]",195 to 196 °C
18,"NC(=O)c1cc2c(Oc3cccc(F)c3F)cncc2s1 [Example 178, 4-(2,3-Difluorophenoxy)thieno[2,3-c]pyridine-2-carboxamide]",207 to 209 °C
19,"CCC(=NO)c1cc2c(Oc3ccc(Cl)cc3)cncc2s1 [Example 246, 1-[4-(4-Chlorophenoxy)thieno[2,3-c]pyridin-2-yl]-1-propanone oxime]",195 to 198 °C (dec.)
